From patent US10688146B2, “Curcuma mangga val et. zipp. extract as a treatment to overcome prostate problems” (PT DEXA MEDICA, priority 2013, dated 2020)

Experiments:
DHT = DHT quantification with Elisa kit in PC3 cells treated with excessive testosterone; format: cell-based, human; conditions: PC3 cells with excessive testosterone 8.8 μg/ml, finasteride 2 μg/ml (positive control)
Experimental: Total protein was isolated after 24 hours treatment with the extract of Curcuma mangga Val. et Zipp. The isolation was performed using Lysis Buffer and TRIzol method. The result of total protein isolation further was calculated using Lowry method. Protein that was obtained subsequently was used as a sample for Western Blot against 5-alpha-reductase and DHT, and the DHT test using Elisa kit Alpha Diagnostic International. The analytical process of semi-Western Blot was performed in accordance to the general method, which is using specific antibody for 5-alpha-reductase-1 and DHT. The detection of Western Blot was performed using HRP-conjugated (Horseradish Peroxidase) secondary antibody and coloring with luminol.
Quantitative analysis was performed using Elisa kit in accordance to the protocol provided by the manufacturer. PC3 cells that were used in this present invention was treated with excessive testosterone which is 8.8 μg/ml, and was treated with 150 μg/ml Curcuma mangga Val. et Zipp extract and 2 μg/ml finasteride, in separate groups. In this present invention, the finasteride treatment group was a positive control.

[1] = tested on: male rats (Rattus norvegicus) Wistar strain with induced prostate gland growth; assay: Inhibition of prostate gland growth in castrated, testosterone-induced rats; format: in vivo; conditions: finasteride 1 mg/kg
Experimental: Animals that were used in the present invention were male rats (Rattus norvegicus) Wistar strain weighing between 200-250 grams from Indoanilab, Bogor, Indonesia. The animals were bred in special cages, in groups, with a normal light setting, which are 12 hours of light and 12 hours of dark and received food and drinking water ad libitum.
The animals were divided into five groups: sham-operated group (normal group), negative control group that is BPH group without any treatment, positive control group that is treated with finasteride 1 mg/kg of body weight, and treatment group which divided into two groups based on the dose of Curcuma mangga Val. et Zipp. extract that they received, namely 92.37 mg/kg and 184.74 mg/kg of body weight. In all animals the growth of its prostate gland were induced, except for the animals in the sham-operated group.
Those rats were induced with subcutaneous administration of testosterone injection to stimulate the growth of prostate gland at the dose of 10 mg/kg body weight, every day for 7 days. The administration of testosterone injection was performed after the removal of testes (castration) and sham surgery in rats. The castration procedures were performed to avoid bias caused by the differences of testosterone amount produced by each individual rat.

CC(C)(C)NC(=O)[C@H]1CC[C@H]2[C@@H]3CC[C@H]4NC(=O)C=C[C@]4(C)[C@H]3CC[C@]12C [finasteride]
DHT levels (Elisa kit) (DHT): reduced levels of DHT | DHT plasma concentration [1]: suppression of DHT plasma concentration
